The nature of series [1]: storage stability in solid form. In kind it is physicochemical. The following applies: e.g. at 5° C.
Series [2] is described as follows: stability in aqueous solution. In kind it is physicochemical. The following applies: pH values of 3-5, 5° C.
A short description of series [3]: solubility in water. In kind it is physicochemical. The text has this:
Thus, a compound of the present invention is appropriate for pharmaceutical administration.

Series [4] has as its system Enterococcus faecalis. The series can be described thus: MIC, Agar Dilution Test and/or Micro Dilution Test (NCCLS). In kind it is cell-based. Conditions: against Enterococcus faecalis. The text has this: (§1) In particular, the compounds of the present invention show antimicrobial, e.g. antibacterial activity against aerobic and anaerobic growing bacteria, e.g. gram negative and gram positive bacteria such as Enterobacter, e.g. Enterobacter cloacae; Enterococcus, e.g. Enterococcus faecalis; Moraxella, e.g. Moraxella catarrhalis; Haemophilus, e.g. Haemophilus influenza; Klebsiella, e.g. Klebsiella edwardsii, Klebsiella pneumoniae; Streptococcus, e.g. Streptococcus pyogenes; Staphylococcus, e.g. Staphylococcus aureus MSSA (methicillin sensitive strains); Staphylococcus aureus MRSA (methicillin resistant strains); Escherichia coli; Proteus, e.g. Proteus mirabilis; Salmonella, e.g. Salmonella typhimurium; Serratia, e.g. Serratia marcescens; Pneumococci, e.g. Streptococcus pneumoniae (penicillin resistant and multi-drug resistant strains); in vitro in the Agar Dilution Test and/or Micro Dilution Test for bacteria according to National Committee for Clinical Laboratory Standards (NCCLS) 1993, • Document M7-A3, Vol. 13, No.25: “Methods for dilution Antimicrobial Susceptibility Tests for Bacteria that Grow Aerobically”—Third Edition, Approved Standard”; and • Document M11 -A3 for anaerobic bacteria in a concentration from about 0.001 to about […] (MIC), e.g. using strains including Staphylococcus aureus (ATCC 29213 and ATCC 9144); Enterococcus faecalis (ATCC 29212); Haemophilus influenza (NTCC 49247 and NCTC 11931); Escherichia coli (ATCC 25922 and ATCC 35218); Klebsiella pneumoniae (NCTC 11228); Klebsiella edwardsii (NCTC 10896); and in vivo in the septicaemia mouse model, in accordance to the method description Nr. […] E.g., mice are infected with an ED 95% of Staphylococcus aureus (ATCC 4995), Streptococcus pyogenes (ATCC 29218), Escherichia coli (Δ 12 NFI culture collection) and are treated 1.5 and 24 hours after infection. The ED 50% values ranging form ca. 0.2 to 50 mg/kg body weight are calculated by Probit analysis of the administered dosages of compounds. Activity is determined by numbers of surviving animals per group of 8 mice per dosage unit day 5 after infection. The compounds of the invention show an surprising overall activity spectrum.
In general terms: Agar dilution tests growth on a series of plates holding different concentrations.

Series [5] has as its system Staphylococcus aureus (MSSA). The series is described as above. Conditions: against Staphylococcus aureus (MSSA). Type of series: cell-based.
Text: as §1

Series [6] has as its system methicillin resistant Staphylococcus aureus. The description is as above. In kind it is cell-based. The following applies: against methicillin resistant Staphylococcus aureus.
Text: as §1

The subject of series [7] is multi-drug resistant Pneumococcus. The series is described as above. Type of series: cell-based. The following applies: Streptococcus pneumoniae; against multi-drug resistant Pneumococcus.
Text: as §1

The subject of series [8] is Enterobacter cloacae. Described as above. In kind it is cell-based. The following applies: against Enterobacter cloacae.
Series [9] is described as follows: water uptake in presence of environmental moisture (stress test) / water content constancy. In kind it is physicochemical. The following applies: Karl Fischer, over 6 weeks. The text has this: A monohydrochloride, produced according to the present invention, may be obtained in the form of a trihydrate, which, after appropriate drying, has a water content of ca. 7% to 10%, such as 7.3% to 9.6% (theory: 8.2%). The monohydrochloride in the form of a trihydrate may be dried, e.g. over P2O5, to a water content of 1.5%. […] The chloride content of the monohydrochloride in the form of a trihydrate is between 5% and 6% (theory: 5.5%).
Water content (Karl Fischer): 9.6%. […] HCl (titration): 5.5%. Isopropanol-content: 0.05%. Content of a compound of formula I (based on the free base): […]. pH and [β]^20D of a 1% solution in water: pH: 4.3; [β]^20589=−167±1°

Values after ≈ are worked out from the molar mass of the structure shown. Structures can show the parent of a compound that is named as a salt. Where two headings read alike, the source gives them in different places.

The MIC is the least concentration at which growth counts as inhibited. Low values mean a more susceptible organism, high ones a less susceptible organism.

In the case of `CN(/N=C/C1=C(C(=O)O)N2C(=O)[C@@H](NC(=O)/C(=N\OCF)c3nsc(N)n3)C2SC1)C(=N)N1CCNCC1` (stereo partly shown), in series [1], the “storage time with practically no or only slight decomposition” value is on record as “at least 4 weeks”. The “stability in aqueous solution” value in series [2] is “remains stable for at least one week”. For the same compound, the solubility in series [3] (in water at 5°C.) was ≥ 2 % (w/v); in series [3] (in water at room temperature, read-out: solubility), around 100 mg/mL (≈ 176 mM).
`CN(/N=C/C1=C(C(=O)O)N2C(=O)[C@@H](NC(=O)/C(=N\OCF)c3nsc(N)n3)C2SC1)C(=N)N1CCNCC1` (stereo partly shown) [Example 2, 7-{[(5-amino-1,2,4-thiadiazol-3-yl)-(Z)-(fluoromethoxyimino)acetyl]amino}-3-[(imino-1-piperazinylmethyl)methylhydrazono]-methyl-3-cephem-4-carboxylic acid in the form of a monohydrochloride and in the form of a trihydrate]: the MIC lay within 0.1 to 0.8 µg/mL in series [4]; 0.2 to 0.8 µg/mL in series [5]; 0.8 to 12.6 µg/mL in series [6]; 0.4 to 0.8 µg/mL in [7]; 0.025 to 12.8 µg/mL in [8]. In addition, the water content constancy result in series [9] is given as “Water content constant (±6%) over 6 weeks”.

The record behind these values is patent publication US20050043289A1, “Crystalline hydrochloride of 7-(((5-amino-1,2,4-thiadiazol-3-yl) (fluoromethoxyimino)acetyl)amino)-3-((imino-1-piperazinylmethyl)methylhydrazono)-methyl-3-cephem-4-carboxylic acid” (priority 2002, published 2005).
